In patent US20240000847A1, “METHODS” (bluebird bio, Inc., priority 2020, published 2024):
Where two headings read alike, the source gives them in different places.

Columns and labels:
[1] = system: hematopoietic stem cells (LSK: lineage negative, Sca1+, ckit+); settings: mice, 8.3-25 mg/kg anti-CD117 and anti-CD47 antibodies, two doses of 50 mg/kg cyclophosphamide, vs vehicle or antibodies alone
Protocol: In another experiment, immunocompetent mice (C57Bl/6 or Balb/C) were dosed with 8.3-25 mg/kg of anti-CD117 and anti-CD47 antibodies with or without two doses of 50 mg/kg of cyclophosphamide approximately 48 hours apart. Five to seven days after antibody treatment, mouse bone marrow was analyzed by flow cytometry or plated in methocellulose medium to evaluate impacts on the hematopoietic stem cells. […] FIG. 3.

[2] = system: bone marrow macrophages; settings: mice; for F4/80+ macrophage staining in bone marrow smears (pathology): Ctx dosed at 2×100 mg/kg, FIG. 2B, 100 mg/kg; for F4/80+ macrophage staining in bone marrow smears (pathology) / activation status of macrophages recruited to the bone marrow (FcγRI signal): compared to vehicle; for activation status of macrophages recruited to the bone marrow (FcγRI signal): FIG. 2A bottom panel
Protocol: Immunocompetent mice (C57Bl/6 or Balb/C) were dosed with vehicle of one of four different cyclophosphamide (Cytoxan) regimens including: one dose of 50 mg/kg, one dose of 100 mg/kg, two doses of 50 mg/kg approximately 48 hours apart, and two doses of 100 mg/kg approximately 48 hours apart. Three days following the final dose of the regimen, mouse bone marrow was evaluated for macrophage number and phenotype of. Flow cytometry was used to characterize bone marrow macrophages. Briefly, bone marrow was stained with murine macrophage markers including CD11b, F4/80, CD16 (FcγRIII; marker of activated macrophages), CD32 (FcγRII; inhibitory macrophage marker), CD68, and CD64 (FcγRI; marker of activated macrophages). In addition, bone marrow smears were prepared for pathology analysis and stained with F4/80 to quantify macrophages.

For `O=P1(N(CCCl)CCCl)NCCCO1` (centres unmarked) [cyclophosphamide], the “depletion of stem cells (LSK) in the bone marrow” value ([1]; 5-7 days after antibody, FIG. 3 left) was “enhanced the antibody-mediated depletion”, the “number of colony forming cells (CFUs) from bone marrow” value ([1]; methocellulose, FIG. 3 right) was “reduced the number of colony forming cells” and the “increase of macrophage content in the bone marrow” value ([2]; 1 or 2 doses of 50 or 100 mg/kg, three days after final dose, flow cytometry, FIG. 2A top panel) was “up to 2.5 fold”. For the same compound, the “F4/80+ macrophage staining in bone marrow smears (pathology)” value [2] was “increased macrophage staining”, the “F4/80+ macrophage staining in bone marrow smears (pathology)” value ([2]; listed as Cyclophosphamide) was “increase” and the “macrophage recruitment in bone marrow compared to vehicle” value ([2]; FIG. 2A top panel) was “increased macrophage recruitment”. For the same compound, the “activation status of macrophages recruited to the bone marrow (FcγRI signal)” value [2] was “increased macrophage activation” and the “activation status of macrophages recruited to the bone marrow (FcγRI signal)” value ([2]; listed as Cyclophosphamide) was “enhanced activation status”.
